Reference: patent US7842488B2, “Polynucleotides encoding a human 3-phosphoinositide- dependent protein kinase” (Medical Research Council, priority 1997, dated 2010)

How the values were obtained:
[1] = test system: PDK1; test: PDK1 assay: activation of GST-PKBα by purified PDK1 with phospholipid vesicles; type: biochemical, rabbit; conditions: lipid 10 μM in vesicles of 100 μM PtdCho, 100 μM PtdSer, 30 min at 30° C.
Method: Assay of PDK1. The assay was carried out in two stages; in the first, GST-PKBα was incubated with PDK1 in the presence of MgATP and phospholipid vesicles to permit activation of GST-PKBα.
After 10 min at 30° C., the reactions were terminated by spotting the reaction mixture on to p81 phosphocellulose paper. The papers were washed in phosphoric acid and analysed as described previously. […] The basal GST-PKBα activity is the activity measured in the absence of PDK1.

[2] = test system: PDK1; test: Phosphorylation of GST-PKBα by PDK1 with [γ32P]ATP; type: biochemical, rabbit; conditions: lipid 10 μM in PtdCho/PtdSer vesicles
Method: Solutions were stored at 4° C. at concentrations 10-fold higher than those required in the assay and used within 2-4 days.
Phosphorylation of GST-PKB ? by PDK1. The incubations were identical to the Stage 1 described above except that [γ^32P] ATP (200-400 cpm/pmol) was used instead of unlabelled ATP. The reactions were terminated by making the solution 1% (by mass) in SDS. […] The Coomassie blue-staining bands corresponding to GST-PKBα were excised and the ^32P-radioactivity associated with each band was quantified.

[3] = molecular target: T1, GST-PDK1 (Homo sapiens, UniProt O15530); test: GST-PDK1 assay: activation and phosphorylation of GST-PKBα; type: biochemical; conditions: lipid 10 μM in PtdCho/PtdSer vesicles
T1 construct: Residues 52-556 of PDK1 were expressed in human embryonic kidney 293 cells; made in house; host or cells: human embryonic kidney 293 cells (pEBG2T)
T1 sequence (O15530 52-556): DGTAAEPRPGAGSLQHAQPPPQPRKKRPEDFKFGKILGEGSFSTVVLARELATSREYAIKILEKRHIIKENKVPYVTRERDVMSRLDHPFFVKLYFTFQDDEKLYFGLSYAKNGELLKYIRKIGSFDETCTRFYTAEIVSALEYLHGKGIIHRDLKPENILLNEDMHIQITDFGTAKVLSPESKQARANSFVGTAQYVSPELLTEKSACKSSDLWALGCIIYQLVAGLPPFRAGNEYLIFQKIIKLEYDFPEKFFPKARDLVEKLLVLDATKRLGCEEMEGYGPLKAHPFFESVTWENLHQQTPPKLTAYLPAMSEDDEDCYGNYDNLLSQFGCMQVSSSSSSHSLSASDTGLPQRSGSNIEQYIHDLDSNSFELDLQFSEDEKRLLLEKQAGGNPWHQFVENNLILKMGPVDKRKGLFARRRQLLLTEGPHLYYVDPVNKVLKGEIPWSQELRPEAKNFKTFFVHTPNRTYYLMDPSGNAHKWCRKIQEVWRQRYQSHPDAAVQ
Method: (§1) FIG. 12. […] In panels A and C, the assays were terminated by making the incubations 1% (by vol) in TRITON X-100™ (see Ref 21), and the increase in specific activity of GST-PKBα was determined. In panels B and D, the reactions were terminated by making the solutions 1% in SDS, the samples were subjected to SDS/polyacrylamide gel electrophoresis, and the phosphorylation was assessed by autoradiography of the Coomassie blue-stained band corresponding to GST-PKBα.
(§2) One unit of PDK1 activity was defined as that amount required to increase the basal activity of GST-PKBα by 1 unit of activity in one min.

[4] = molecular target: T2, GST-DSTPK61 (Drosophila melanogaster, UniProt Q9W0V1); test: GST-DSTPK61 assay: activation and phosphorylation of GST-PKBα; type: biochemical; conditions: lipid 10 μM in PtdCho/PtdSer vesicles
T2 construct: residues 1-752 of DSTPK61 in E. coli as fusion proteins; made in house; host or cells: E. coli (pGEX-3X)
T2 sequence (Q9W0V1 85-836 Q200H/Q201E/Q317A/G443R): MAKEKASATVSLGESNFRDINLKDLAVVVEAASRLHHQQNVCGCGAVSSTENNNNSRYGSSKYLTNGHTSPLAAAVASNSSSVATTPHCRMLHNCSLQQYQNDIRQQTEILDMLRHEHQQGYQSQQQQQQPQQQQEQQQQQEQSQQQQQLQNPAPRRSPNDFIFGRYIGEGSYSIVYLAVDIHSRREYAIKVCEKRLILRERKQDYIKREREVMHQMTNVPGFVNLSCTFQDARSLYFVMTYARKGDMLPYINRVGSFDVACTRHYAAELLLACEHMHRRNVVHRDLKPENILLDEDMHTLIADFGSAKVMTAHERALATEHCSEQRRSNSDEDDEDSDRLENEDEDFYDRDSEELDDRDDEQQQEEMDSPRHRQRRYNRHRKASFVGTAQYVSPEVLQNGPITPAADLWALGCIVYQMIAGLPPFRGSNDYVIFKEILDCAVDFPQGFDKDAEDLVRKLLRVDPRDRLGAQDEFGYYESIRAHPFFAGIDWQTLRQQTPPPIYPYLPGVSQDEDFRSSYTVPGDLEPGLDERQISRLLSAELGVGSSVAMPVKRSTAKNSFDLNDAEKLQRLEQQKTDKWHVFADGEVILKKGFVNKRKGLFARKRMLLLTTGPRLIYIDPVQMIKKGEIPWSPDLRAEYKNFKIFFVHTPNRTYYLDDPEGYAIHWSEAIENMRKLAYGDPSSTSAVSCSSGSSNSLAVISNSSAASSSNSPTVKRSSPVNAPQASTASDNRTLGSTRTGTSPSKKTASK
Method: as §1, §2

[5] = test system: HA-PKBα; test: HA-PKBα activity in transfected 293 cells; type: cell-based, human
Method: FIG. 14. PKBα is activated by cotransfection with PDK1 in 293 cells. (A) 293 cells were transiently transfected with DNA constructs expressing either HA-PKBα or both HA-PKBα and Myc-PDK1. The cells were then stimulated for 10 min with or without 50 ng/ml IGF1, the HA-PKBα immunoprecipitated from the lysates and assayed. The results are expressed relative to the specific activity of wild type HA-PKBα in unstimulated 293 cells ([…]). No PKBα activity was detected in mock transfections in which the cells were transfected with PCMV5 vector alone (data not shown). (B) 6 μg of protein from each lysate was electrophoresed on a 10% SDS/polyacrylamide gel and immunoblotted using either a monoclonal HA-antibody to detect HA-PKBα or a monoclonal Myc-antibody to detect Myc-PDK1. The molecular mass markers are glycogen phosphorylase (97 kDa), bovine serum albumin (67 kDa) and ovalbumin (43 kDa).
Transfection of 293 cells with HA-tagged PBKα and Myc-PDK1. Human embryonic kidney 293 cells were cultured on 10 cm diameter dishes and transfected with 2 μg/ml pCMV5 DNA constructs encoding for HA-PKBα or HA-PKBα plus Myc-PDK1 [20]. After 24 h the cells were deprived of serum for a further 16 h and then stimulated for 10 min with either […] IGF1 or Buffer. The cells were lysed in 1.0 ml of ice-cold Buffer A, the lysate centrifuged at 4° C. for 10 min at 13,000×g and HA-PKBα immunoprecipitated from aliquots of the supernatant (10 μg protein) and assayed for PKBα with the peptide RPRAATF (SEQ ID NO: 9) as described previously.

[6] = test system: HA-PKBα; test: 32P-labelling of transfected 293 cells: phosphorylation sites of HA-PKBα; type: cell-based, human; conditions: unstimulated 293 cells
Method: FIG. 15. Overexpression of PDK1 in cells induces phosphorylation of PKBα at Thr308. 293 cells transiently transfected with either wild type HA-PKBα (panels A and C) or HA-PKBα and Myc-PDK1 (panels B and D) were incubated with ^32P-orthophosphate, then treated for 10 min without (panels A and B) or with (panels C and D) 50 ng/ml IGF1. The ^32P-labelled HA-PKBα was immunoprecipitated from the lysates, treated with 4-vinylpyridine, and electrophoresed on 1 10% polyacrylamide gel. The HA-PKBα was excised from the gel, digested with trypsin and chromatographed on a C18 column (see legend to FIG. 13) to resolve the four major phosphopeptides which are phosphorylated at Ser-124, Ser473, Thr308 and Thr450 respectively. The identity of each phosphopeptide was established by phospho-amino acid analysis and solid phase sequencing. Similar results were obtained in two separate experiments for (panels A and C), and in three separate experiments (panels B and D).
^32P-labelling of 293 cells transfected with HA-PKBα or Myc-PDK1. This was carried out essentially as described previously. Briefly, 293 cells were transfected with HA-PKBα, or with HA-PKBα plus Myc-PDK1, washed with phosphate free DMEM, incubated for 4 h with [^32P]-orthophosphate (1 mCi/ml), then stimulated with IGF1 (50 ng/ml) for 5 min. The cells were lysed, and the HA-PKBα immunoprecipitated (using 10 μg of 12CAS antibody per 10 cm dish of cells) or the Myc-PDK1 immunoprecipitated (using 10 μg of 9E10 antibody per 10 cm dish of cells). The immunoprecipitated protein was alkylated with 4-vinylpyridine, subjected to SDS/polyacrylamide gel electrophoresis, digested with trypsin and analysed by chromatography on a C18 column (Alessi et al (1996) EMBO J. 15, 6541-6551).

Molecule: CCCCCCCCCCCCCCCC(=O)OC[C@H](COP(=O)(O)OC1C(O)C(O)C(O)C(OP(=O)(O)O)C1O)OC(=O)CCCCCCCCCCCCCCC (stereo partly shown) [Lipid 11, sn-1,2 di-palmitoyl PtdIns-3P]
- activation of PDK1 (in words) [1]: no significant activation
- activation of PDK1 (in words) ([1]; listed as PtdIns(3)P): did not activate PDK1 at all
- activation of PDK1 (in words) ([1]; listed as lipid 11): did not activate PDK1
- phosphorylation of GST-PKBα by PDK1 (in words) [2]: did not activate PDK1 or induce the phosphorylation
- activation and phosphorylation of GST-PKBα by GST-PDK1 (in words) [3]: no activation or phosphorylation
- activation and phosphorylation of GST-PKBα by GST-DSTPK61 (in words) [4]: no activation or phosphorylation

B1: Myc-D223A-PDK1: catalytically inactive mutant of PDK1, Myc-tagged (protein)
chain: MARTTSQLYDAVPIQSSVVLCSCPSPSMVRTQTESSTPPGIPGGSRQGPAMDGTAAEPRPGAGSLQHAQPPPQPRKKRPEDFKFGKILGEGSFSTVVLARELATSREYAIKILEKRHIIKENKVPYVTRERDVMSRLDHPFFVKLYFTFQDDEKLYFGLSYAKNGELLKYIRKIGSFDETCTRFYTAEIVSALEYLHGKGIIHRDLKPENILLNEDMHIQITAFGTAKVLSPESKQARANSFVGTAQYVSPELLTEKSACKSSDLWALGCIIYQLVAGLPPFRAGNEYLIFQKIIKLEYDFPEKFFPKARDLVEKLLVLDATKRLGCEEMEGYGPLKAHPFFESVTWENLHQQTPPKLTAYLPAMSEDDEDCYGNYDNLLSQFGCMQVSSSSSSHSLSASDTGLPQRSGSNIEQYIHDLDSNSFELDLQFSEDEKRLLLEKQAGGNPWHQFVENNLILKMGPVDKRKGLFARRRQLLLTEGPHLYYVDPVNKVLKGEIPWSQELRPEAKNFKTFFVHTPNRTYYLMDPSGNAHKWCRKIQEVWRQRYQSHPDAAVQ
modifications: left off: small tags and cut ends
- activation of HA-PKBα on cotransfection (in words) ([5]; 293 cells): not activated significantly

B2: Myc-PDK1: Myc-epitope tagged PDK1 transfected into 293 cells (protein)
chain: DGTAAEPRPGAGSLQHAQPPPQPRKKRPEDFKFGKILGEGSFSTVVLARELATSREYAIKILEKRHIIKENKVPYVTRERDVMSRLDHPFFVKLYFTFQDDEKLYFGLSYAKNGELLKYIRKIGSFDETCTRFYTAEIVSALEYLHGKGIIHRDLKPENILLNEDMHIQITDFGTAKVLSPESKQARANSFVGTAQYVSPELLTEKSACKSSDLWALGCIIYQLVAGLPPFRAGNEYLIFQKIIKLEYDFPEKFFPKARDLVEKLLVLDATKRLGCEEMEGYGPLKAHPFFESVTWENLHQQTPPKLTAYLPAMSEDDEDCYGNYDNLLSQFGCMQVSSSSSSHSLSASDTGLPQRSGSNIEQYIHDLDSNSFELDLQFSEDEKRLLLEKQAGGNPWHQFVENNLILKMGPVDKRKGLFARRRQLLLTEGPHLYYVDPVNKVLKGEIPWSQELRPEAKNFKTFFVHTPNRTYYLMDPSGNAHKWCRKIQEVWRQRYQSHPDAAVQ
modifications: left off: small tags and cut ends
- fold increase of HA-PKBα activity on cotransfection ([5]; unstimulated 293 cells): 20 fold
- phosphorylation of HA-PKBα at Thr308 relative to IGF1-stimulated cells transfected with HA-PKBα alone ([6]; cotransfection): 70%
- phosphorylation of HA-PKBα at Ser473 on cotransfection (in words) [6]: did not induce phosphorylation of HA-PKBα at Ser473
